The source of these data is patent US10987359B2, “Oxadiazepinone derivatives and methods of treating hepatitis B infections” (priority 2016, dated 2021).

Structures are written as SMILES.

The experiment relates to HBV. Briefly: HBV replication inhibition assay (BDNA assay) in HepG2.2.15 cells. The experiment is classed as cell-based. Conditions: Hepatitis B virus, HepG2.2.15, HBV replication assay (BDNA assay), HepG2.2.15 cells; read-out: DNA EC50. Put shortly:
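Supernatant encapsidated HBV DNA was measured by bDNA after DNase digestion and proteinase K release. Stably HBV-integrated HepG2.2.15 cells had two 3-day compound exposures (0.5% DMSO). Signals were background-subtracted and normalized to DMSO wells, and EC50 was obtained by four-parameter fit.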
As to `CN1OC(CO)Cn2nc3c(c2C1=O)CN(C(=O)Nc1ccc(F)c(Cl)c1Cl)CC3` (centres unmarked) [Compound 023, N-(2,3-dichloro-4-fluorophenyl)-4-(hydroxymethyl)-2-methyl-1-oxo-1,4,5,8,9,11-hexahydropyrido[4′,3′:3,4]pyrazolo[5,1-d][1,2,5]oxadiazepine-10(2H)-carboxamide], the EC50 lay in the range of 1 to 100 nM.

For the molecule `CN1OC(CO)Cn2nc3c(c2C1=O)CN(C(=O)Nc1ccc(Cl)c(Cl)c1F)CC3` (centres unmarked) [Compound 024, N-(3,4-dichloro-2-fluorophenyl)-4-(hydroxymethyl)-2-methyl-1-oxo-1,4,5,8,9,11-hexahydropyrido[4′,3′:3,4]pyrazolo[5,1-d][1,2,5]oxadiazepine-10(2H)-carboxamide], the EC50 lay within 1 to 100 nM.

As for `CN1OC(CO)Cn2nc3c(c2C1=O)CN(C(=O)Nc1ccc(Cl)c(C(F)(F)F)c1)CC3` (centres unmarked) [Compound 025, N-(4-chloro-3-(trifluoromethyl)phenyl)-4-(hydroxymethyl)-2-methyl-1-oxo-1,4,5,8,9,11-hexahydropyrido[4′,3′:3,4]pyrazolo[5,1-d][1,2,5]oxadiazepine-10(2H)-carboxamide], the EC50 was in the range of 1 to 100 nM.

Take `Cc1ccc(NC(=O)N2CCc3nn4c(c3C2)C(=O)N(C)OC(CO)C4)cc1Cl` (centres unmarked) [Compound 026, N-(3-chloro-4-methylphenyl)-4-(hydroxymethyl)-2-methyl-1-oxo-1,4,5,8,9,11-hexahydropyrido[4′,3′:3,4]pyrazolo[5,1-d][1,2,5]oxadiazepine-10(2H)-carboxamide]: the half-maximal effective concentration (EC50) was in the range of 1 to 100 nM.

Turning to `CN1OC(CO)Cn2nc3c(c2C1=O)CN(C(=O)Nc1cc(Cl)c(Cl)cc1F)CC3` (centres unmarked) [Compound 027, N-(4,5-dichloro-2-fluorophenyl)-4-(hydroxymethyl)-2-methyl-1-oxo-1,4,5,8,9,11-hexahydropyrido[4′,3′:3,4]pyrazolo[5,1-d][1,2,5]oxadiazepine-10(2H)-carboxamide], the EC50 was 1 to 100 nM.

On to `CN1OC(CO)Cn2nc3c(c2C1=O)CN(C(=O)Nc1cccc(S(F)(F)(F)(F)F)c1)CC3` (centres unmarked) [Compound 029, 4-(hydroxymethyl)-2-methyl-1-oxo-N-(3-(pentafluoro-16-sulfanyl)phenyl)-1,4,5,8,9,11-hexahydropyrido[4′,3′:3,4]pyrazolo[5,1-d][1,2,5]oxadiazepine-10(2H)-carboxamide], for which the concentration for a half-maximal effect (EC50) lay in the range of 1 to 100 nM.

For the molecule `CN1OC(CO)Cn2nc3c(c2C1=O)CN(C(=O)Nc1cccc(Cl)c1)CC3` (centres unmarked) [Compound 030, N-(3-chlorophenyl)-4-(hydroxymethyl)-2-methyl-1-oxo-1,4,5,8,9,11-hexahydropyrido[4′,3′:3,4]pyrazolo[5,1-d][1,2,5]oxadiazepine-10(2H)-carboxamide], the EC50 was 1 to 100 nM.

With `CN1OC(CF)Cn2nc3c(c2C1=O)CN(C(=O)Nc1cccc(C(F)(F)F)c1)CC3` (centres unmarked) [Compound 036, 4-(fluoromethyl)-2-methyl-1-oxo-N-(3-(trifluoromethyl)phenyl)-1,4,5,8,9,11-hexahydropyrido[4′,3′:3,4]pyrazolo[5,1-d][1,2,5]oxadiazepine-10(2H)-carboxamide], the 50% effective concentration (EC50) was 1 to 100 nM.

On to `CN1OC(CO)Cn2nc3c(c2C1=O)CN(C(=O)N(C)c1ccc(F)c(Cl)c1)CC3` (centres unmarked) [Compound 045, N-(3-chloro-4-fluorophenyl)-4-(hydroxymethyl)-N,2-dimethyl-1-oxo-1,4,5,8,9,11-hexahydropyrido[4′,3′:3,4]pyrazolo[5,1-d][1,2,5]oxadiazepine-10(2H)-carboxamide], for which the EC50 is 100 to 500 nM.

For the molecule `CN1OC(CO)Cn2nc3c(c2C1=O)CN(C(=O)Nc1cccc(Cl)c1)CC3(C)C` (centres unmarked) [Compound 046, N-(3-chlorophenyl)-4-(hydroxymethyl)-2,8,8-trimethyl-1-oxo-1,4,5,8,9,11-hexahydropyrido[4′,3′:3,4]pyrazolo[5,1-d][1,2,5]oxadiazepine-10(2H)-carboxamide], the 50% effective concentration (EC50) lay within 100 to 500 nM.

On to `CC1CN(C(=O)Nc2cccc(Cl)c2)Cc2c1nn1c2C(=O)N(C)OC(CO)C1` (centres unmarked) [Compound 047, N-(3-chlorophenyl)-4-(hydroxymethyl)-2,8-dimethyl-1-oxo-1,4,5,8,9,11-hexahydropyrido[4′,3′:3,4]pyrazolo[5,1-d][1,2,5]oxadiazepine-10(2H)-carboxamide], for which the EC50 is 100 to 500 nM.

For the molecule `CSCC1Cn2nc3c(c2C(=O)N(C)O1)CN(C(=O)Nc1ccc(F)c(Cl)c1)CC3` (centres unmarked) [Compound 048, N-(3-chloro-4-fluoro-phenyl)-2-methyl-4-(methylsulfanylmethyl)-1-oxo-5,8,9,11-tetrahydro-4H-pyrido[2,3]pyrazolo[2,4-d][1,2,5]oxadiazepine-10-carboxamide], the EC50 was 1 to 100 nM.

Take `CN1OC(CS(C)(=O)=O)Cn2nc3c(c2C1=O)CN(C(=O)Nc1ccc(F)c(Cl)c1)CC3` (centres unmarked) [Compound 050, N-(3-chloro-4-fluorophenyl)-2-methyl-4-((methylsulfonyl)methyl)-1-oxo-1,4,5,8,9,11-hexahydropyrido[4′,3′:3,4]pyrazolo[5,1-d][1,2,5]oxadiazepine-10(2H)-carboxamide]: the EC50 lay in the range of 1 to 100 nM.

For the molecule `COC(=O)OCC1Cn2nc3c(c2C(=O)N(C)O1)CN(C(=O)Nc1ccc(F)c(Cl)c1)CC3` (centres unmarked) [Compound 051, (10-((3-chloro-4-fluorophenyl)carbamoyl)-2-methyl-1-oxo-1,2,4,5,8,9,10,11-octahydropyrido[4′,3′:3,4]pyrazolo[5,1-d][1,2,5]oxadiazepin-4-yl)methyl methyl carbonate], the EC50 was in the range of 1 to 100 nM.

On to `CC(=O)OCC1Cn2nc3c(c2C(=O)N(C)O1)CN(C(=O)Nc1ccc(F)c(Cl)c1)CC3` (centres unmarked) [Compound 052, (10-((3-chloro-4-fluorophenyl)carbamoyl)-2-methyl-1-oxo-1,2,4,5,8,9,10,11-octahydropyrido[4′,3′:3,4]pyrazolo[5,1-d][1,2,5]oxadiazepin-4-yl)methyl acetate], for which the EC50 lay within 1 to 100 nM.

Turning to `CC(C)OC(=O)OCC1Cn2nc3c(c2C(=O)N(C)O1)CN(C(=O)Nc1ccc(F)c(Cl)c1)CC3` (centres unmarked) [Compound 053, (10-((3-chloro-4-fluorophenyl)carbamoyl)-2-methyl-1-oxo-1,2,4,5,8,9,10,11-octahydropyrido[4′,3′:3,4]pyrazolo[5,1-d][1,2,5]oxadiazepin-4-yl)methyl isopropyl carbonate], the EC50 is 1 to 100 nM.

Take `CN1OC(COC(=O)OC(C)(C)C)Cn2nc3c(c2C1=O)CN(C(=O)Nc1ccc(F)c(Cl)c1)CC3` (centres unmarked) [Compound 054, tert-butyl ((10-((3-chloro-4-fluorophenyl)carbamoyl)-2-methyl-1-oxo-1,2,4,5,8,9,10,11-octahydropyrido[4′,3′:3,4]pyrazolo[5,1-d][1,2,5]oxadiazepin-4-yl)methyl) carbonate]: the EC50 was 1 to 100 nM.

Regarding `CN1OC(COC(=O)C(C)(C)C)Cn2nc3c(c2C1=O)CN(C(=O)Nc1ccc(F)c(Cl)c1)CC3` (centres unmarked) [Compound 055, (10-((3-chloro-4-fluorophenyl)carbamoyl)-2-methyl-1-oxo-1,2,4,5,8,9,10,11-octahydropyrido[4′,3′:3,4]pyrazolo[5,1-d][1,2,5]oxadiazepin-4-yl)methyl pivalate], the EC50 was 1 to 100 nM.

On to `CCOC(=O)OCC1Cn2nc3c(c2C(=O)N(C)O1)CN(C(=O)Nc1ccc(F)c(Cl)c1)CC3` (centres unmarked) [Compound 056, (10-((3-chloro-4-fluorophenyl)carbamoyl)-2-methyl-1-oxo-1,2,4,5,8,9,10,11-octahydropyrido[4′,3′:3,4]pyrazolo[5,1-d][1,2,5]oxadiazepin-4-yl)methyl ethyl carbonate], for which the EC50 is 1 to 100 nM.

Turning to `CN1OC(COC(N)=O)Cn2nc3c(c2C1=O)CN(C(=O)Nc1ccc(F)c(Cl)c1)CC3` (centres unmarked) [Compound 057, (10-((3-chloro-4-fluorophenyl)carbamoyl)-2-methyl-1-oxo-1,2,4,5,8,9,10,11-octahydropyrido[4′,3′:3,4]pyrazolo[5,1-d][1,2,5]oxadiazepin-4-yl)methyl carbamate], the EC50 was in the range of 1 to 100 nM.

Take `CN(C)CC1Cn2nc3c(c2C(=O)N(C)O1)CN(C(=O)Nc1ccc(F)c(Cl)c1)CC3` (centres unmarked) [Compound 058, N-(3-chloro-4-fluoro-phenyl)-4-[(dimethylamino)methyl]-2-methyl-1-oxo-5,8,9,11-tetrahydro-4H-pyrido[2,3]pyrazolo[2,4-d][1,2,5]oxadiazepine-10-carboxamide]: the EC50 fell in the range of 1 to 100 nM.

On to `CN(C)C(=O)OCC1Cn2nc3c(c2C(=O)N(C)O1)CN(C(=O)Nc1ccc(F)c(Cl)c1)CC3` (centres unmarked) [Compound 059, [10-[(3-chloro-4-fluoro-phenyl)carbamoyl]-2-methyl-1-oxo-5,8,9,11-tetrahydro-4H-pyrido[2,3]pyrazolo[2,4-d][1,2,5]oxadiazepin-4-yl]methyl N,N-dimethylcarbamate], for which the EC50 was 1 to 100 nM.

`CC1CON(C)C(=O)c2c3c(nn21)CCN(C(=O)Nc1ccc(F)c(Cl)c1)C3` (centres unmarked) [Compound 061, N-(3-chloro-4-fluoro-phenyl)-2,5-dimethyl-1-oxo-5,8,9,11-tetrahydro-4H-pyrido[2,3]pyrazolo[2,4-d][1,2,5]oxadiazepine-10-carboxamide]: the EC50 was 1 to 100 nM.

For the molecule `CC1Cn2nc3c(c2C(=O)N(C)O1)CN(C(=O)Nc1ccc(F)c(Cl)c1)CC3` (centres unmarked) [Compound 062, N-(3-chloro-4-fluorophenyl)-2,4-dimethyl-1-oxo-1,4,5,8,9,11-hexahydropyrido[4′,3′:3,4]pyrazolo[5,1-d][1,2,5]oxadiazepine-10(2H)-carboxamide], the EC50 was 1 to 100 nM.

In the case of `CC1Cn2nc3c(c2C(=O)N(C)O1)CN(C(=O)Nc1cccc(Cl)c1)CC3` (centres unmarked) [Compound 063, N-(3-chlorophenyl)-2,4-dimethyl-1-oxo-1,4,5,8,9,11-hexahydropyrido[4′,3′:3,4]pyrazole [5,1-d][1,2,5]oxadiazepine-10(2H)-carboxamide], the EC50 was 1 to 100 nM.

On to `CN1OC(C)(C)Cn2nc3c(c2C1=O)CN(C(=O)Nc1ccc(F)c(Cl)c1)CC3` [Compound 064, N-(3-chloro-4-fluoro-phenyl)-2,4,4-trimethyl-1-oxo-5,8,9,11-tetrahydro pyrido[2,3]pyrazolo[2,4-d][1,2,5]oxadiazepine-10-carboxamide], for which the EC50 was 1 to 100 nM.
